Assay results from PubChem BioAssay (NCI).
“And” between values parts separate entries of the source, which are not always exact repeats. Equal values may be shown once.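 Compound exposure: 48 hours, 5 concentrations, 96-well plates. Here, GI50 denotes the concentration required for 50% inhibition of growth. TGI marks complete inhibition of growth.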

Tests used:
Test in all cases: NCI anticancer screen, dose series, 48 h
[1] = system: HL-60(TB) leukemia
[2] = system: HOP-92 NSCLC
[3] = system: SK-MEL-28 melanoma
[4] = system: A549 NSCLC
[5] = system: MOLT-4 leukemia
[6] = system: 786-0 renal
[7] = system: ACHN renal
[8] = system: EKVX NSCLC
[9] = system: K-562 leukemia
[10] = system: RXF 393 renal
[11] = system: MALME-3M melanoma
[12] = system: KM12 colon
[13] = system: MDA-MB-231 breast
[14] = system: HCT-15 colon
[15] = system: OVCAR-5 ovarian
[16] = system: SF-539 CNS

SMILES	TGI [1]	TGI [2] [µM]	TGI [3] [µM]	TGI [4] [µM]	TGI [5] [µM]	TGI [6] [µM]	TGI [7] [µM]	TGI [8] [µM]	TGI [9] [µM]	TGI [10] [µM]	TGI [11] [µM]	TGI [12] [µM]	TGI [13] [µM]	TGI [14] [µM]	TGI [15] [µM]	TGI [16]	GI50 [3] [µM]	GI50 [7] [µM]	GI50 [8] [µM]	GI50 [15] [µM]
COc1ccc(C2NC(=S)Nc3c2c(=O)oc2c3ccc3ccccc32)cc1 (configuration not stated)	> 100 µM	> 100	> 100	> 100	> 100	> 100	> 100	> 100	> 100	> 100	> 100	> 100	> 100	> 100	> 100					
O=C1/C(=C\Oc2ccc(F)cc2)N2CCC1CC2	> 100 µM	> 100	> 100	> 100	> 100	> 100	> 100	> 100	> 100	> 100	> 100		> 100	> 100	> 100	> 100 µM				
CC(C)=CCC[C@]1(C)C=Cc2c(O)c3c(c(CC=C(C)C)c2O1)O[C@]12C(=C[C@@H]4CC1C(C)(C)O[C@@]2(C/C=C(/C)C(=O)O)C4=O)C3=O	0.706 µM	9.16	3.26	3.71	1.8	2.4	1.37	4.39		2.34	3.76	2.25	4.23		2.94	0.477 µM				
Cc1c(N2C(=O)/C(=C/c3ccc(Cl)cc3)N=C2c2ccccc2)c(=O)n(-c2ccccc2)n1C	57 µM	66.6		99.4	> 100	> 100	60.5	63.4	> 100	76.8	> 100	> 100	> 100	19.6	> 100	73.6 µM				
Cc1ccc(NC(Nc2ccc(C)cc2C)=C(C(Cl)=C(Cl)Cl)[N+](=O)[O-])c(C)c1	22 µM	31.7	35.2	28.4	31.2	30.1	28.5	29.8	24.6	32.6	31.8	29.2	33	32.3		43 µM				
O=C(CC(=O)N1N=C(N2CCCCC2)CC1c1ccccc1)Nc1ccccc1 (configuration not stated)	> 100 µM	> 100	> 100	> 100	> 100	> 100	> 100	> 100		> 100	> 100	> 100	> 100	> 100	> 100	> 100 µM				
O=C1NC(N2CCOCC2)=N/C1=C\c1ccc(Cl)cc1	> 100 µM	> 100	> 100	> 100	> 100	> 100	> 100	> 100		> 100	> 100	> 100	> 100	> 100	> 100	> 100 µM				
Oc1ccc(O)c(CNc2ccc(C(O)C(F)(F)F)cc2)c1 (configuration not stated)	16.4 µM	27.7	77.3	> 100	29.7	29	26.6	27.8	> 100	26.7	31		33.7	30.7	40.8	21.1 µM				
CNNC1=NS(=O)(=O)c2cc(C#N)c(Cl)cc2S1	> 10 µM		> 10	> 10	> 10	> 10	> 10	> 10	> 10	> 10	> 10	> 10	> 10	> 10	> 10	> 10 µM				
Cc1cc2c(c(C=Nc3ccccc3O)c1)OC1(C=C2)Oc2ccccc2C(=O)N1C (configuration not stated)	> 100 µM	32.2	47.5	70.8	51	37.5	40.3	40.5	62.2	37.2		41.3	37.5	30.9	30					
NC(Cc1ccc(OCc2ccccc2)cn1)C(=O)O (configuration not stated)	> 100 µM		> 100	> 100	> 100	> 100	> 100	> 100	> 100	> 100	> 100	> 100	> 100	> 100	> 100	> 100 µM				
C=C=C(CC1CCCCC1=O)S(=O)(=O)c1ccccc1 (configuration not stated)	2.5 µM	> 10	> 10	> 10	3.06	> 10	> 10	> 10	> 10	> 10	> 10		> 10	> 10	> 10	> 10 µM				
CC1=CC(=O)CC(C)(C)C1/C=C/C(C)=C/C=C/C(C)=C/C=C/C=C(C)/C=C/C=C(C)/C=C/C1C(C)=CC(=O)CC1(C)C (configuration not stated)	> 100 µM	62.8	> 100		> 100	> 100	> 100	> 100	> 100	> 100		> 100	> 100	85	> 100	> 100 µM				
OC(c1ccc(F)cc1)C(F)(F)c1nc2ccccc2o1 (configuration not stated)	> 100 µM	> 100	> 100		> 100	> 100	> 100	> 100	82.3	> 100		> 100	> 100	> 100		> 100 µM				
O=C(O[C@@H](/C=C/c1ccccc1)P1(=O)N(Cc2ccccc2)[C@H]2CCCC[C@@H]2N1Cc1ccccc1)c1ccccc1	7.66 µM	45.2	> 100	> 100		> 100	6.91	> 100	> 100	7.85	31.6	14.8	6.95	> 100	> 100	21.3 µM				
CC(=O)C1=C(C)N2C(=NC3=C(CCc4ccccc43)C2c2ccc(F)cc2)S1 (configuration not stated)	92.4 µM	> 100	> 100	> 100	6.54	> 100	> 100	> 100	90.4	> 100		> 100	> 100		> 100	> 100 µM				
O=[N+]([O-])c1cccc2nc3ccccc3c(NCCCn3ccnc3[N+](=O)[O-])c12	0.0168 µM and 0.0332 µM					0.0137				0.000768	0.00107		0.0119			0.0218 µM and 0.055 µM	45.4	33.4	76.4	0.0109
CCOC(=O)c1c(N)n(-c2ccccc2)c(=O)n(-c2ccccc2)c1=O	> 100 µM	> 100	> 100	> 100	> 100	> 100	> 100		> 100	> 100	> 100	> 100	> 100	> 100	> 100					
COc1ccc(N=Nc2c(C)c(C#N)c(=S)n(C3OC(CO)C(O)C(O)C3O)c2-c2ccccc2)cc1 (configuration not stated)	> 100 µM		63.6	> 100	46.5	> 100	> 100		> 100	65.9	63.1	> 100	> 100	> 100	81.6	> 100 µM				
CC(=O)C(=[N+]=[N-])C(=O)N1CCOC1=O	> 10 µM		> 10	> 10	> 10	> 10	> 10	> 10	> 10	> 10	> 10	> 10	> 10	> 10	> 10	> 10 µM				
O=C(O)CCCC(=O)Nn1c(Cc2ccc(Cl)cc2)n[nH]c1=O	> 100 µM	> 100	> 100	> 100	> 100	> 100	> 100	> 100	> 100	> 100	> 100	> 100	> 100	> 100	> 100					
O=c1[nH]c(Cc2ccccc2)nc2c1sc1nc3ccccc3n12	> 100 µM	> 100	> 100	> 100	> 100	> 100	> 100	> 100	> 100	> 100		> 100	> 100	> 100	> 100	> 100 µM				
O=c1c2cc(I)ccc2nc(SCc2nncs2)n1Cc1ccccc1	> 100 µM	35.1	> 100	> 100	> 100	> 100	> 100	48.6	> 100	81.6		> 100	76.7	> 100	> 100	84.1 µM				
N#Cc1cc(C#N)c(N)nc1N	> 100 µM	> 100		> 100	> 100	> 100	> 100	> 100	> 100	> 100	> 100	> 100	> 100	> 100	> 100	> 100 µM				
